Test results from patent US4206235A, “Novel 2,5-dihalophenyl-β-substituted sulfone fungicides” (priority 1976, dated 1980).
In brackets after ≈: the same amount, converted by molar mass. Several values for one entry are separate records, joined by “and”; a condition that tells them apart may be missing. Equal values may be shown once.

Tests used:
Aspergillus flavus = assay: Halo test on plasticized PVC sheeting; format: cell-based; parameters: key to growth under the test sample (GUS): +: no reduction in growth; ±: slight reduction in growth; .-+.: moderate reduction in growth; -: complete reduction in growth
Penicillium funivulosum = assay: Agar incorporation test; format: cell-based; details: 120 h, 5 days at 28° C., P. funiculosum
Experimental: The fungal plates were incubated for 5 days at 28° C. The plates were then assessed for either the presence or absence of growth and the minimum inhibitory concentration (MIC) in ppm recorded.

Aspergillus niger [1] = assay: Halo test on plasticized PVC sheeting; format: cell-based; parameters: key to growth under the test sample (GUS): +: no reduction in growth; ±: slight reduction in growth; .-+.: moderate reduction in growth; -: complete reduction in growth
[2] = test system: Cladosporium cladosporoides; assay: Halo test on plasticized PVC sheeting; format: cell-based; parameters: key to growth under the test sample (GUS): +: no reduction in growth; ±: slight reduction in growth; .-+.: moderate reduction in growth; -: complete reduction in growth
Alternaria tenuis = assay: Halo test on plasticized PVC sheeting; format: cell-based; parameters: key to growth under the test sample (GUS): +: no reduction in growth; ±: slight reduction in growth; .-+.: moderate reduction in growth; -: complete reduction in growth; details: for Zone of growth inhibition (halo): brackets = growth partially suppressed
Rhizopus stolonifer = assay: Fungitoxicity in culture media (agar), growth inhibition; format: cell-based; details: 50% inhibition of growth, read-out: ED50 (the source's name)
Experimental: (§1) Acetone solutions of the compound were mixed with an aliquot of distilled water and the fine suspension obtained was mixed with cooled but melted agar medium and poured into Petri dishes.
(§2) The tested fungi were grown on the solidified media. Growth of the fungus was measured and percent inhibition was calculated by comparing with the appropriate acetone-water controls. Media were usually Martin's or potato-dextrose agar media.
(§3) ED50 = effective dose, sufficient for the 50% inhibition of growth of the fungus, expressed in p.p.m.

Rhizoctonia bataticola = assay: as above; format: cell-based; details: Macrophomina phaseolina, 50% inhibition of growth, read-out: ED50 (the source's name)
Experimental: as §1, §2, §3

[3] = test system: Fusarium oxysporum sp. f.lycopersici; assay: as above; format: cell-based; details: 50% inhibition of growth, read-out: ED50 (the source's name)
Experimental: as §1, §2, §3

Sclerotinia rolfsil = assay: as above; format: cell-based; details: 50% inhibition of growth, read-out: ED50 (the source's name)
Experimental: as §1, §2, §3

Rhizoctonia solani = assay: as above; format: cell-based; details: 50% inhibition of growth, read-out: ED50 (the source's name)
Experimental: as §1, §2, §3

Pythium aphanidermatum = assay: as above; format: cell-based; details: 50% inhibition of growth, read-out: ED50 (the source's name)
Experimental: as §1, §2, §3

[4] = test system: mixed spore suspension of Aspergillus flavus, Aspergillus niger, Paecilomyces varioti, Penicillium funiculosum, Trichoderma viride, Alternaria tenuis …; assay: Weight Loss Test of PVC sheeting; details: 14 days at 28° C.; for % weight loss: single strip
common moulds = assay: Activity against common moulds on plasticized PVC sheets; format: cell-based
Trichoderma viride = assay: Halo test on plasticized PVC sheeting; format: cell-based; parameters: key to growth under the test sample (GUS): +: no reduction in growth; ±: slight reduction in growth; .-+.: moderate reduction in growth; -: complete reduction in growth
Paecilomyces varioti [5] = assay: Halo test on plasticized PVC sheeting; format: cell-based; parameters: key to growth under the test sample (GUS): +: no reduction in growth; ±: slight reduction in growth; .-+.: moderate reduction in growth; -: complete reduction in growth
Paecilomyces varioti [6] = assay: Agar incorporation test; format: cell-based; details: 120 h, 5 days at 28° C., P. varioti
Experimental: (§4) Pure cultures of fungi Paecilomyces varioti, Cladosporium cladosporides, Penicillium funivulosum, and Aspergillus niger were exposed to a range of dilutions of the compound viz: 10,000, 3,000, 1,000, 600, 300, 100, 30, 10, 1 ppm incorporated into agar via […]. The fungal plates were incubated for 5 days at 28° C. The plates were then assessed for either the presence or absence of growth and the minimum inhibitory concentration (MIC) in ppm recorded.

Aspergillus niger [7] = assay: Agar incorporation test; format: cell-based; details: 120 h, 5 days at 28° C., A. niger
Experimental: as §4

[8] = test system: Cladosporium cladosporides; assay: Agar incorporation test; format: cell-based; details: 120 h, 5 days at 28° C.
Experimental: as §4

Penicillium funiculosum = assay: Halo test on plasticized PVC sheeting; format: cell-based; parameters: key to growth under the test sample (GUS): +: no reduction in growth; ±: slight reduction in growth; .-+.: moderate reduction in growth; -: complete reduction in growth
two-spotted mite = assay: Activity against the two-spotted mite
[9] = 0.5% in PVC sheeting, brackets = growth partially suppressed

COC(=O)C(Cl)CS(=O)(=O)c1cc(Cl)ccc1Cl (stereo not drawn) [Example 3, 2,5-dichlorophenyl-β-carboxymethyl-β'-chloroethyl sulfone]
Zone of growth inhibition (halo) (Aspergillus flavus; 0.5% in PVC sheeting): 1 millimetres | growth under the test sample (GUS) (Aspergillus flavus; 0.5% in PVC sheeting): .-+. | Zone of growth inhibition (halo) (Aspergillus flavus; 1% in PVC sheeting): 1 millimetres | growth under the test sample (GUS) (Aspergillus flavus; 1% in PVC sheeting): .-+. | MIC (Penicillium funivulosum): 30 µg/mL (≈ 90.5 µM) | growth under the test sample (GUS) (Aspergillus niger [1]; 0.5% in PVC sheeting): - | Zone of growth inhibition (halo) (Aspergillus niger [1]; [9]): 2 millimetres | Zone of growth inhibition (halo) (Aspergillus niger [1]; 1% in PVC sheeting): 6 millimetres | growth under the test sample (GUS) (Aspergillus niger [1]; 1% in PVC sheeting): - | growth under the test sample (GUS) ([2]; 0.5% in PVC sheeting): - | Zone of growth inhibition (halo) [2, 9]: 4 millimetres | Zone of growth inhibition (halo) ([2]; 1% in PVC sheeting): 9 millimetres | growth under the test sample (GUS) ([2]; 1% in PVC sheeting): - | growth under the test sample (GUS) (Alternaria tenuis; 0.5% in PVC sheeting): - | Zone of growth inhibition (halo) (Alternaria tenuis; 0.5% in PVC sheeting): 5 millimetres | growth under the test sample (GUS) (Alternaria tenuis; 1% in PVC sheeting): - | Zone of growth inhibition (halo) (Alternaria tenuis; 1% in PVC sheeting): 10 millimetres | IC50 (Rhizopus stolonifer): > 50 µg/mL | IC50 (Rhizoctonia bataticola): 50 µg/mL (≈ 151 µM) | IC50 [3]: > 50 µg/mL | IC50 (Sclerotinia rolfsil): 50 µg/mL (≈ 151 µM) | IC50 (Rhizoctonia solani): 20 µg/mL (≈ 60.3 µM) | IC50 (Pythium aphanidermatum): > 50 µg/mL | Mean % loss as plasticizer ([4]; 0.5%): 1.8% | Mean % weight loss ([4]; 0.5%): 0.6% | % weight loss ([4]; 0.5%): 0.7% and 0.6% and 0.4% and 0.5% | Mean % loss as plasticizer ([4]; 1.0%): 0.6% | Mean % weight loss ([4]; 1.0%): 0.2% | % weight loss ([4]; 1.0%): 0.4% and 0.1% and 0.01% and 0.2% | inhibition of the growth of common moulds on PVC sheets (common moulds; 0.5% by weight, PVC plasticized with 30% dialkyl sebacate): Complete inhibition | inhibition of fungi (common moulds; 0.5% in sheeting, halo test, seven fungi): all fungi were inhibited | inhibition of fungal attack (common moulds; 0.5 and 1.0% in sheeting): virtual complete inhibition of fungal attack | degree of inhibition against the seven fungi (common moulds; 1.0% in sheeting, halo test): good | Zone of growth inhibition (halo) (Trichoderma viride; 0.5% in PVC sheeting): 2 millimetres | growth under the test sample (GUS) (Trichoderma viride; 0.5% in PVC sheeting): .-+. | Zone of growth inhibition (halo) (Trichoderma viride; 1% in PVC sheeting): 5 millimetres | growth under the test sample (GUS) (Trichoderma viride; 1% in PVC sheeting): .-+. | Zone of growth inhibition (halo) (Paecilomyces varioti [5]; 0.5% in PVC sheeting): 5 millimetres | growth under the test sample (GUS) (Paecilomyces varioti [5]; 0.5% in PVC sheeting): - | Zone of growth inhibition (halo) (Paecilomyces varioti [5]; 1% in PVC sheeting): 10 millimetres | growth under the test sample (GUS) (Paecilomyces varioti [5]; 1% in PVC sheeting): - | MIC (Paecilomyces varioti [6]): 100 µg/mL (≈ 302 µM) | MIC (Aspergillus niger [7]): 100 µg/mL (≈ 302 µM) | MIC [8]: 100 µg/mL (≈ 302 µM) | growth under the test sample (GUS) (Penicillium funiculosum; 0.5% in PVC sheeting): - | Zone of growth inhibition (halo) (Penicillium funiculosum; [9]): 4 millimetres | Zone of growth inhibition (halo) (Penicillium funiculosum; 1% in PVC sheeting): 8 millimetres | growth under the test sample (GUS) (Penicillium funiculosum; 1% in PVC sheeting): -

O=S(=O)(C=C(Cl)Cl)c1cc(Cl)ccc1Cl [Example 4, 2,5-dichlorophenyl-β, β-dichlorovinyl sulfone]
IC50 (Rhizoctonia bataticola): 5 µg/mL (≈ 16.3 µM) | IC50 [3]: 5 µg/mL (≈ 16.3 µM) | IC50 (Sclerotinia rolfsil): 10 µg/mL (≈ 32.7 µM) | IC50 (Rhizoctonia solani): 5 µg/mL (≈ 16.3 µM) | IC50 (Pythium aphanidermatum): 1 µg/mL (≈ 3.27 µM) | activity against the two-spotted mite (two-spotted mite): strong activity
